In the supplement of paper PMC11451515:

Test system: NOMO1
Assay: cell viability relative to DMSO control; higher = less cytotoxic
Conditions: 48 h
Procedure, shortened: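 Leukemia cells (NOMO1 or SEM, 500 cells/well; P12-Ichikawa, 1000 cells/well) were seeded in 5 μl in 1536-well plates after at least four passages of adaptation to each medium. They received library compounds in DMSO by pin dosing, 11 threefold points from 47 μM to 0.79 nM. Luminescence with CellTiter-Glo One was read after 48 h at 37°C. Viability is stated per plate relative to DMSO wells, with cell-free wells as background.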

[1] = HPLM + 10% dialyzed FBS, 0.000781 µM
[2] = HPLM + 10% dialyzed FBS, 0.00234 µM
[3] = HPLM + 10% dialyzed FBS, 0.00702 µM
[4] = HPLM + 10% dialyzed FBS, 0.0211 µM
[5] = HPLM + 10% dialyzed FBS, 0.0632 µM
[6] = HPLM + 10% dialyzed FBS, 0.19 µM
[7] = HPLM + 10% dialyzed FBS, 0.569 µM
[8] = HPLM + 10% dialyzed FBS, 1.71 µM
[9] = HPLM + 10% dialyzed FBS, 5.12 µM
[10] = HPLM + 10% dialyzed FBS, 15.4 µM
[11] = HPLM + 10% dialyzed FBS, 46.1 µM
[12] = RPMI 5 mM glucose + 10% FBS, 0.000781 µM
[13] = RPMI 5 mM glucose + 10% FBS, 0.00234 µM
[14] = RPMI 5 mM glucose + 10% FBS, 0.00702 µM
[15] = RPMI 5 mM glucose + 10% FBS, 0.0211 µM
[16] = RPMI 5 mM glucose + 10% FBS, 0.0632 µM
[17] = RPMI 5 mM glucose + 10% FBS, 0.19 µM
[18] = RPMI 5 mM glucose + 10% FBS, 0.569 µM
[19] = RPMI 5 mM glucose + 10% FBS, 1.71 µM
[20] = RPMI 5 mM glucose + 10% FBS, 5.12 µM
[21] = RPMI 5 mM glucose + 10% FBS, 15.4 µM
[22] = RPMI 5 mM glucose + 10% FBS, 46.1 µM
[23] = RPMI 5 mM glucose + 10% dialyzed FBS, 0.000781 µM
[24] = RPMI 5 mM glucose + 10% dialyzed FBS, 0.00234 µM
[25] = RPMI 5 mM glucose + 10% dialyzed FBS, 0.00702 µM
[26] = RPMI 5 mM glucose + 10% dialyzed FBS, 0.0211 µM
[27] = RPMI 5 mM glucose + 10% dialyzed FBS, 0.0632 µM
[28] = RPMI 5 mM glucose + 10% dialyzed FBS, 0.19 µM
[29] = RPMI 5 mM glucose + 10% dialyzed FBS, 0.569 µM
[30] = RPMI 5 mM glucose + 10% dialyzed FBS, 1.71 µM
[31] = RPMI 5 mM glucose + 10% dialyzed FBS, 5.12 µM
[32] = RPMI 5 mM glucose + 10% dialyzed FBS, 15.4 µM
[33] = RPMI 5 mM glucose + 10% dialyzed FBS, 46.1 µM

Structure (SMILES)	cell viability [1]	cell viability [2]	cell viability [3]	cell viability [4]	cell viability [5]	cell viability [6]	cell viability [7]	cell viability [8]	cell viability [9]	cell viability [10]	cell viability [11]	cell viability [12]	cell viability [13]	cell viability [14]	cell viability [15]	cell viability [16]	cell viability [17]	cell viability [18]	cell viability [19]	cell viability [20]	cell viability [21]	cell viability [22]	cell viability [23]	cell viability [24]	cell viability [25]	cell viability [26]	cell viability [27]	cell viability [28]	cell viability [29]	cell viability [30]	cell viability [31]	cell viability [32]	cell viability [33]
CCC1(C)CC(=O)NC1=O (centres undefined)	114%	116%	105%	118%	102%	111%	104%	93.9%	105%	86.7%	84.2%	85.5%	89.2%	84.7%	87.5%	89.2%	92.2%	99.2%	81.7%	90.3%	94.5%	77.4%	104%	98.1%	96.7%	94.3%	81.3%	101%	98.4%	92.7%	96.6%	88.2%	87.6%
CC(=O)O.Cc1c(-c2ccc(O)cc2)n(Cc2ccc(OCCN3CCCCCC3)cc2)c2ccc(O)cc12	95.5%	106%	92.7%	95.6%	89.6%	102%	111%	103%	106%	94.1%	92.5%	86.3%	103%	92.3%	92.7%	88.5%	105%	92.3%	87.5%	96.5%	93.9%	88.6%	97.5%	97.9%	91.4%	96%	99.2%	107%	103%	98.1%	102%	101%	86.7%
COc1c(C)cnc(Cn2cnc3c(Cl)nc(N)nc32)c1C	108%	112%	138%	120%	151%	129%	80.8%	36.7%	19.8%	18.2%	14.3%	117%	112%	115%	139%	129%	119%	91.7%	26.5%	18.6%	14.3%	15.7%	119%	122%	121%	132%	128%	101%	90.1%	34.9%	18.2%	18%	20.2%
O=NN(CCCl)C(=O)NCCCl	89.1%	107%	99.1%	116%	128%	113%	127%	101%	106%	127%	109%	84.4%	99.3%	102%	104%	118%	116%	107%	120%	110%	110%	101%	91.4%	94.5%	109%	112%	101%	98.9%	108%	109%	102%	109%	97.9%
C[C@]\12CC[C@H](O)CC1=C/CC3C2CC[C@@]\4(C)C3C\C=C4[N]5C=NC6=C5C=CC=C6 (some centres undefined)	95.5%	110%	99.5%	96.7%	105%	115%	117%	102%	97%	116%	110%	96.4%	99%	100%	103%	112%	109%	117%	101%	99.2%	125%	100%	84.8%	101%	97.3%	124%	110%	122%	117%	113%	104%	105%	112%
C[C@@H](NC1=CC=CC=C1C(O)=O)C/2=C/C(=C\N3C(=O)/C=C(\N=C23)N4CCOCC4)C	81.1%	88.7%	89.8%	93.6%	99.7%	81.6%	82.6%	61.7%	40.3%	29.4%	11.7%	79.1%	73.6%	79.9%	91.2%	88.2%	87.5%	78%	77.7%	48.3%	27.7%	11.1%	74.8%	82.9%	95.2%	88.9%	87.8%	93.4%	83%	65.2%	41.8%	33.1%	7.82%
CC(C)n1nc(-c2cc3cc(O)ccc3[nH]2)c2c(N)ncnc21	79%	124%	110%	107%	99.7%	94.7%	65.7%	61.6%	44.7%	31.2%	27%	96.2%	113%	104%	105%	104%	96.6%	88.1%	90.2%	71.8%	44.1%	23%	111%	110%	100%	101%	101%	90.9%	76.7%	78%	54.2%	34.1%	14.1%
CN[S+](=O)([O-])Cc1ccc2[nH]cc(CCN(C)C)c2c1	116%	124%	118%	124%	130%	130%	148%	136%	128%	135%	122%	106%	124%	110%	118%	110%	120%	117%	109%	129%	139%	111%	113%	118%	114%	122%	118%	123%	122%	120%	118%	129%	129%
CC(=O)O[C@H]1C(=O)[C@]2(C)[C@@H](O)C[C@H]3OC[C@@]3(OC(C)=O)C2[C@H](OC(=O)C4=CC=CC=C4)[C@]5(O)C[C@H](OC(=O)[C@H](O)[C@@H](NC(=O)C6=CC=CC=C6)C7=CC=CC=C7)\C(=C1/C5(C)C)C (some centres undefined)	74.6%	34.7%	39.5%	41.3%	39.6%	31.7%	33.1%	36.6%	35.5%	29.1%	33.1%	124%	27.4%	23%	25.4%	25.4%	22.5%	23.2%	23.9%	23.1%	23.2%	19.6%	106%	32.5%	25.2%	31.5%	24.8%	26%	29.7%	31.4%	29%	27.1%	20.3%
CC\1=C(C(\N=C(/N1)C2=CC(=NC=C2)Cl)C3=C(F)C=C(Cl)C=C3)/C(=O)NC4=C(F)C=C5[NH]N=CC5=C4 (centres undefined)	85.8%	97.5%	108%	116%	112%	96.7%	107%	110%	105%	115%	27%	101%	100%	101%	104%	95.3%	93.4%	95.7%	98.2%	89%	85.3%	29.4%	94.7%	96.6%	122%	111%	108%	99.8%	106%	98.2%	82.7%	97.3%	40.7%
CC(C)[C@@H](N(CCCN)C(=O)C1=CC=C(C)C=C1)C/2=N/C3=CC(=CC=C3C(=O)N2CC4=CC=CC=C4)Cl	88.4%	25.4%	29.7%	21.4%	20.8%	27.1%	28%	24.4%	20%	15.8%	11.4%	81.9%	16%	16.1%	17.8%	16.9%	15.3%	15.3%	14.3%	9.97%	9.55%	7.35%	78.1%	24%	24.8%	21.9%	22.9%	24.4%	18.7%	15.8%	11.7%	16.3%	11.1%
CC1(C)CC(=O)c2c(C(F)(F)F)nn(-c3ccc(C(N)=O)c(NC4CCC(O)CC4)c3)c2C1 (centres undefined)	83.4%	77.1%	69%	72.5%	96.9%	58.7%	16%	14.1%	15.1%	15.6%	78.3%	86.5%	81.8%	82.1%	84.2%	82.2%	47.7%	12.5%	9.32%	8.93%	8.3%	75.8%	91.7%	94.1%	102%	94.5%	81.6%	48.9%	17.1%	12.1%	12.2%	11.6%	80.6%
CC/1=C/C(=O)N(O)/C(=C1)C2CCCCC2	110%	117%	135%	146%	143%	145%	140%	136%	139%	79%	39.8%	–	–	–	–	–	–	–	–	–	–	–	–	–	–	–	–	–	–	–	–	–	–
COc1ccc(C[C@@H](C)[C@@H](C)Cc2ccc(OC)c(OC)c2)cc1OC	92.1%	94.8%	107%	112%	93.5%	75.5%	68%	53.7%	16.6%	17.8%	13.8%	87.3%	93.7%	88.6%	100%	86.3%	85.1%	74.9%	71.6%	8.17%	6.56%	5.76%	84%	80.2%	97.4%	97.6%	95.3%	89.6%	82.4%	69.2%	21.4%	11.1%	7.7%
Cc1ccccc1N1C(=O)c2cc([S+](N)(=O)[O-])c(Cl)cc2NC1C (centres undefined)	123%	109%	121%	117%	106%	120%	110%	113%	37.9%	82.7%	123%	131%	113%	124%	116%	114%	118%	120%	122%	28.1%	94.5%	107%	114%	128%	124%	130%	128%	119%	116%	119%	35.6%	77.8%	109%
NC(=O)c1cnc(N[C@@H]2CCCC[C@@H]2N)nc1Nc1cccc(-n2nccn2)c1	118%	120%	123%	153%	140%	141%	154%	116%	138%	110%	75%	–	–	–	–	–	–	–	–	–	–	–	–	–	–	–	–	–	–	–	–	–	–
